Among the data in PubChem BioAssay AID1159562 (GlaxoSmithKline (GSK), 2015) are IC50 values, retold here.

Active and inactive are the calls of the source. The rule behind the calls is not given here.

This test concerns Trypanosoma brucei growth inhibition, luminescence. In words: Trypanosoma brucei growth inhibition, luminescence (AID 1159562).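 Note: parasites grew with compound for 24 h before the luminescence read.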
As for `COc1ccc2ncc(=O)n(CCN3CCC(NCc4ccc(-c5cccs5)cc4)CC3)c2n1`, the IC50 (usually the midpoint of a concentration-inhibition curve) was 6300 nM.

As for `Cc1cccc(Nc2nc(-c3ccccn3)cs2)n1`, the 50% inhibitory concentration (IC50) was 500 nM.

Take `NS(=O)(=O)c1ccc(Nc2ncc3cccc(OC4CCNCC4)c3n2)cc1`: the half-maximal inhibitory concentration (IC50) is 320 nM.

On to `Cc1nn2c(NCCCO)c3c(nc2c1-c1cccs1)CCC3`, for which the half-maximal inhibitory concentration (IC50) was 400 nM.

Consider `COc1cnc2ccc(=O)n(CCN3CCC(NC(=O)Cc4ccc(Cl)c(Cl)c4)CC3)c2c1`, for which the half-inhibitory concentration (IC50) is 500 nM.

With `O=C(CSc1nnc2ccc(-c3ccc(F)cc3)nn12)N1CCCCC1`, the concentration for half-maximal inhibition (IC50) was 500 nM.

In the case of `CCn1c(-c2nonc2N)nc2c([C@@H](C)O)ncc(O[C@H](CN)c3ccccc3)c21`, the IC50 was 790 nM.

For the compound `Cc1cccc(NS(=O)(=O)c2ccc3c(c2)C(=O)c2cc(S(=O)(=O)Nc4cccc(C)c4C)ccc2-3)c1C`, the half-maximal inhibitory concentration (IC50) was 10000 nM.

On to `COc1ccccc1C=CCN1C[C@H]2CCC[C@@H](C1)C2(O)c1cccnc1` (some centres not stated), for which the IC50 is > 40000 nM (inactive).

`COc1cc(C2SCC(=O)Nc3c2c(C)nn3-c2nc3ccccc3s2)cc(OC)c1O` (configuration not stated): the IC50 was > 40000 nM (inactive).

For `Cc1ccc(S(=O)(=O)Nc2ccc(CN3CCN(C(=O)c4cccc(C#N)c4)CC3)cc2)cc1`, the IC50 is 320 nM.

Consider `CN(Cc1nc2ccc(C(=O)NCC3CCCCC3)cc2[nH]1)C1CCCc2cccnc21` (configuration not stated), for which the IC50 is 320 nM.

On to `COc1cccc(NS(=O)(=O)c2ccc3[nH]cc(C(=O)NCCC(C)C)c(=O)c3c2)c1`, for which the half-maximal inhibitory concentration (IC50) was 630 nM.

`COc1ccccc1CNc1cc(C2CC2)nc(-c2nccn2C)n1`: the 50% inhibitory concentration (IC50) was 2000 nM.

As for `Cc1ccccc1NS(=O)(=O)c1ccc2[nH]cc(C(=O)NC3CCCCC3)c(=O)c2c1`, the IC50 was 320 nM.

Consider `COc1ccc(CN2C(=O)C(O)(CC(=O)c3ccncc3)c3cc(Br)ccc32)cc1OC` (configuration not stated), for which the IC50 is 630 nM.

With `FC(F)(F)c1cc(C2CCCN(Cc3c[nH]c4ccccc34)C2)nc2ncnn12` (configuration not stated), the IC50 is > 40000 nM (inactive).

`COc1ccc(C)cc1-c1csc(NC(=O)C(C)n2ccnc2)n1` (configuration not stated): the IC50 is > 40000 nM (inactive).

Consider `COc1ccc2ncc(F)c(CCN3CC[C@@H](NC(=O)c4cc5c(s4)CCC5)[C@@H](O)C3)c2n1`, for which the half-inhibitory concentration (IC50) was 320 nM.

In the case of `O=C(NCC1CCCCN1C(=O)c1cccc2ccccc12)c1ccccc1` (configuration not stated), the concentration for half-maximal inhibition (IC50) is 400 nM.

In the case of `CN(Cc1ccc(C(N)=O)cc1)C(c1ccc(F)cc1)c1cccnc1` (configuration not stated), the IC50 was > 40000 nM (inactive).

As to `CCOc1ccc2nc(NC(=O)c3ccc([N+](=O)[O-])s3)sc2c1`, the IC50 was 2500 nM.

Take `COc1cccc(C(=O)[C@H]2C[C@@H]2CN(Cc2ccccn2)Cc2ccccn2)c1`: the half-maximal inhibitory concentration (IC50) was 20000 nM.

For the compound `CCOc1ccc(N(C)S(=O)(=O)c2ccc3[nH]cc(C(=O)NC4CCCC4)c(=O)c3c2)cc1`, the IC50 is 500 nM.

As for `COc1cccc2sc(CN(C)C(=O)C3CNCCN3c3ccc(F)cc3)c(C)c12` (configuration not stated), the IC50 was 250 nM.

For the compound `O=C(CN1CCC2(O)CCCCC2C1c1ccc2c(c1)OCO2)Nc1ccc(Cl)cc1Cl` (configuration not stated), the half-inhibitory concentration (IC50) was 7900 nM.

For `O=C(NCCc1cccnc1)c1csc(-c2ccccc2)n1`, the IC50 is > 40000 nM (inactive).

Regarding `O=C(NC(c1ccc(Cl)cc1)c1cnccn1)C1CCN(C(=O)Nc2cccc(C(F)(F)F)c2)CC1` (configuration not stated), the IC50 was 6300 nM.

Turning to `NC(=O)c1cc(F)ccc1Nc1nc(NC2CCC(O)CC2)ncc1Cl` (configuration not stated), the IC50 was 630 nM.

Regarding `CCc1nn(-c2ncc(F)c(NC(C)C)n2)c(N)c1C1CCCCC1`, the half-maximal inhibitory concentration (IC50) is 16000 nM.

`C[C@@H](Oc1cc(-n2cnc3ccc(CC(O)CO)cc32)sc1C(N)=O)c1ccccc1Cl` (some centres not stated): the half-maximal inhibitory concentration (IC50) is 790 nM.

`N#Cc1cnc(Nc2cccc(CCN3CCOCC3)c2)nc1Nc1ccccc1C(N)=O`: the IC50 is 250 nM.

Turning to `O=C(c1ccc(OCCCc2cnc[nH]2)cc1)C1CC1`, the IC50 was > 40000 nM (inactive).

Take `O=C1CN(C2CCCc3c(OCc4ccncc4)cccc32)C(=O)N1C1CCCCC1` (configuration not stated): the IC50 is > 40000 nM (inactive).

For the compound `Cc1ccc(S(=O)(=O)Nc2ccc(CN3CCN(C(=O)c4cccc(C)c4)CC3)cc2)cc1`, the half-maximal inhibitory concentration (IC50) was 500 nM.

`NCc1csc(Nc2cc(Oc3ccccc3)ncn2)n1`: the IC50 was 790 nM.

For the compound `C[C@@H](Oc1cc(-n2cnc3ccc(O[C@H]4CCNC4)cc32)sc1C(N)=O)c1ccccc1Cl`, the half-inhibitory concentration (IC50) was 790 nM.

Regarding `CCN(CC)S(=O)(=O)c1ccc(Cn2nc(C(=O)Nc3ccncn3)c3ccccc32)cc1`, the IC50 is > 40000 nM (inactive).

As to `Cc1cc2cncn2c(C2CCCCN2C(=O)c2cccs2)n1` (configuration not stated), the IC50 was > 40000 nM (inactive).

In the case of `c1ccc2c(CCOc3nccnc3-c3ccncc3)c[nH]c2c1`, the half-maximal inhibitory concentration (IC50) was 40000 nM.

For the compound `CNS(=O)(=O)c1ccccc1Nc1nc(Nc2cc(C)nn2C)ncc1Cl`, the IC50 is 100 nM.

Take `O=C(Nc1ccc(-c2nc3ccccc3c(=O)[nH]2)cc1)c1cccs1`: the 50% inhibitory concentration (IC50) is 1000 nM.

Turning to `COc1ccc(Nc2nc(-c3ccccn3)cc(N3CCCC(O)C3)n2)cc1` (configuration not stated), the half-maximal inhibitory concentration (IC50) was 13000 nM.

With `Clc1ccc(OCCN2CCCCC2c2cccnc2)c(Cl)c1` (configuration not stated), the IC50 was > 40000 nM (inactive).

Take `Cc1cc2nc(CN(C)Cc3ncccc3C)[nH]c2cc1C`: the IC50 was 630 nM.

Consider `COc1ccc(CNc2nsc3ccccc23)cc1OC`, for which the half-maximal inhibitory concentration (IC50) is 6300 nM.

In the case of `NCC(Cc1ccccc1)NC(=O)c1cnc(-c2c[nH]c3ncccc23)s1` (configuration not stated), the IC50 is 1000 nM.

As for `Cc1ccc(NC(=O)c2ccnc(N3CCCC3)c2)cc1-c1cc(C(N)=O)ccc1C`, the IC50 is 250 nM.

Consider `COc1ccc(C(=O)Nc2c(C)nn(COc3cccc(C(F)(F)F)c3)c2C)cc1`, for which the half-inhibitory concentration (IC50) was 790 nM.

`c1ccc(CCNCc2cncc3nc(-c4cnccn4)n(C4CCCCC4)c23)cc1`: the IC50 is > 40000 nM (inactive).

Turning to `CCc1cccc(CC)c1-n1c(SCC(=O)N2CC(=O)Nc3ccccc32)nnc1-c1cccnc1`, the IC50 is 1000 nM.

Take `O=c1ccc2ccc(F)c3c2n1C[C@H]3CN1CCC(NCc2cc3ccccc3o2)CC1`: the 50% inhibitory concentration (IC50) is 2000 nM.

With `O=C(c1cc2cc(Cl)ccc2[nH]1)N1CCCCC1c1cccnc1` (configuration not stated), the half-maximal inhibitory concentration (IC50) is 16000 nM.

On to `CNc1c(C(N)=O)c(-c2ccc3scnc3c2)nn1CC(F)(F)F`, for which the IC50 was > 40000 nM (inactive).

Regarding `O=C(Nc1nc2cc(Cl)ccc2o1)c1cccc(Cl)c1`, the IC50 is 790 nM.

`COc1ccc(C(=O)Nc2ccc(NC(=O)CO)cc2)cc1`: the IC50 is 250 nM.

For `CC(=O)Nc1ccc(-c2noc(CC3CCCN(Cc4cccc(F)c4C)C3)n2)cc1` (configuration not stated), the IC50 is 25000 nM.

Consider `CC1CN(Cc2ccc(C#N)cc2)CCN1c1ccc(NC(=O)c2ccccc2F)cc1` (configuration not stated), for which the IC50 was > 40000 nM (inactive).

For the compound `Cc1[nH]nc(C(F)(F)F)c1NC(=O)CCn1cc(Cl)c([N+](=O)[O-])n1`, the IC50 was 790 nM.

For `COc1ncc(-c2ccc3nccc(-c4ccncc4)c3c2)cc1NS(C)(=O)=O`, the IC50 was 1000 nM.

With `Cc1nc2c(-c3n[nH]c(-c4ccccc4N)n3)cccn2c1C`, the IC50 was 2500 nM.

As to `Cc1cc(N2CCc3ccccc3C2)nc(Nc2ccc(S(=O)(=O)N3CCOCC3)cc2)n1`, the IC50 was > 40000 nM (inactive).

`CS(=O)(=O)c1ccc(Nc2nccc(Nc3n[nH]c4ccc(F)cc34)n2)c(F)c1`: the IC50 is 790 nM.

`O=C(CCc1ccc(-c2ccccc2)o1)N1CCN(c2ccc(O)cc2)CC1`: the IC50 was 40000 nM.

`COc1cccc(-c2c(C)nn(-c3nc(N)nc(-c4ccccn4)n3)c2N)c1`: the IC50 was > 40000 nM (inactive).

For the compound `COc1ccc(Nc2nccc(N(C)c3n[nH]c4c(F)cccc34)n2)cc1S(C)(=O)=O`, the 50% inhibitory concentration (IC50) was 10000 nM.

For `CS(=O)(=O)c1cccc(CNC(=O)c2cncc(N3CCN(c4ccc(F)cc4)CC3)c2)c1`, the IC50 was > 40000 nM (inactive).

On to `CC(=O)NC1(c2ccccc2)CCN(CC(=O)Nc2ccccc2-c2ccccc2)CC1`, for which the concentration for half-maximal inhibition (IC50) is 500 nM.

As for `Cn1nc(-c2ccc(NC(=O)Cc3ccccc3Cl)cc2)c2c(N)ncnc21`, the 50% inhibitory concentration (IC50) is 250 nM.

On to `c1ccc(-c2nc(NCc3ccco3)c3ccccc3n2)nc1`, for which the IC50 was 6300 nM.

Consider `Clc1ccc(C(CC2CCCCO2)Cn2cncn2)c(Cl)c1` (configuration not stated), for which the IC50 is > 40000 nM (inactive).

Turning to `O=C(CSc1nnc(-c2ccc3c(c2)OCO3)o1)N(Cc1ccco1)CC(F)(F)F`, the IC50 was > 40000 nM (inactive).

Regarding `Cc1cccc(N2CCCN(Cc3c[nH]c4ccccc34)CC2)n1`, the half-inhibitory concentration (IC50) was 13000 nM.

Turning to `Cc1nc2c(-c3nc(-c4ccc(N)cc4)n[nH]3)cccn2c1C`, the half-maximal inhibitory concentration (IC50) is 25000 nM.

With `CC(=Cc1ccccc1)CN1CCC(=O)N(Cc2cccnc2)CC1`, the IC50 is > 40000 nM (inactive).

For `Cc1nc2c(-c3ncn[nH]3)cc(NC(=O)Cc3ccccc3)cn2c1C`, the IC50 was 10000 nM.

Take `COc1ccc(-c2ccc3nnc(-c4ccc(O)c(OC)c4)n3c2)cn1`: the concentration for half-maximal inhibition (IC50) is 2500 nM.

In the case of `Nc1nonc1-c1nc2cncc(C(=O)N3CC[C@H](N)C3)c2n1CC1CC1`, the concentration for half-maximal inhibition (IC50) was 790 nM.

Turning to `COc1ccc(NS(=O)(=O)c2cccc(NC(=O)c3cc(F)cc(F)c3)c2)cc1`, the half-maximal inhibitory concentration (IC50) is 1000 nM.

`O=C(COc1ccccc1)Nc1ccccc1C(=O)Nc1nccs1`: the IC50 was 630 nM.

Take `CCCCn1nnnc1CSc1nc(C)cc(C)c1C#N`: the IC50 is > 40000 nM (inactive).

For the compound `CC(c1ccc2c(c1)CCCC2)N(C)c1ncc2c(N)nc(N)nc2n1` (configuration not stated), the IC50 was 13000 nM.

As to `O=C(NC1CCN(C2Cc3ccc(NS(=O)(=O)c4cc(F)cc(F)c4)cc3C2)CC1)C1CC1` (configuration not stated), the IC50 is 790 nM.

On to `CN1CCN(c2nc(-c3ccc(Cl)cc3)c3c(N)n(C)nc3n2)CC1`, for which the IC50 was 32000 nM.

With `CN(C)c1ncc(-c2cncn2CCOc2ccc(Cl)cc2)cn1`, the IC50 is > 40000 nM (inactive).

For `O=C(NCc1ccc(Cl)cc1)C1CN(C(=O)c2ccc(F)cc2)CCS1` (configuration not stated), the half-maximal inhibitory concentration (IC50) is 630 nM.

On to `Cc1ccc(Nc2nc(C3CCCN3Cc3ccn[nH]3)cs2)nc1` (configuration not stated), for which the IC50 was 4000 nM.

For `c1ccc2sc(Nc3nc4ncccc4[nH]3)nc2c1`, the IC50 is 1600 nM.

For `Cc1c([N+](=O)[O-])c(C(=O)Nc2sc3c(c2C#N)CCC(C)C3)nn1C` (configuration not stated), the IC50 is > 40000 nM (inactive).

With `COc1ccc(Nc2nc(-c3ccccn3)cs2)c(OC)c1`, the half-maximal inhibitory concentration (IC50) is 25000 nM.

Regarding `CNc1cc(Cn2c(C(=O)c3cc(C)cc(Cl)c3)c(C(C)C)c(=O)[nH]c2=O)ccn1`, the concentration for half-maximal inhibition (IC50) is 25000 nM.

Consider `O=C1NCCn2ccc(Nc3nc(NC4CCC(O)CC4)ncc3Cl)c21` (configuration not stated), for which the half-inhibitory concentration (IC50) is 630 nM.
